Drawing on ChEMBL document CHEMBL1201862, “PubChem BioAssay data set” (2004), this text covers IC50, AC50 and EC50 for 37 molecules.

The source made the active and inactive calls. Peptide text beside a SMILES is read from it. * marks the point of attachment. Cbz = O=C(OCc1ccccc1)*

Assay [1] has as its target T1, Polyadenylate-binding protein 1 (Homo sapiens, UniProt P11940). Description: PABP1 MLLE–PAM2 interaction inhibitors, dose response, miRNA deadenylation inhibitor project, biochemical, fluorescence polarization, Cy5-PAM2 peptide, secondary (AID 602260). The following applies: read-out: IC50_Mean. Format: functional.
Assay [2] addresses T1, Polyadenylate-binding protein 1. Description: PABP1 MLLE–PAM2 binding inhibitor potency, dose response, biochemical, fluorescence polarization, FITC-PAM2 peptide (AID 602259). Format: functional. The following applies: read-out: IC50_Mean.
Assay [3] has as its target Cytochrome P450 3A4 (Homo sapiens, UniProt P08684).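 Note: CYP3A4 tested as one member of a cytochrome P450 panel screen.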
Assay [4] addresses Cytochrome P450 2C9 (Homo sapiens, UniProt P11712).
Assay [5] addresses Cytochrome P450 2C19 (Homo sapiens, UniProt P33261). Description: Cytochrome panel assay with activity outcomes. Panel member name: p450-cyp2c19 Compounds with AC50 equal or less than 10 uM are considered active. The assay is classed as functional. The settings on record: read-out: AC50.
The target in assay [6] is Cytochrome P450 2D6 (Homo sapiens, UniProt P10635).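 Note: CYP2D6 member of a cytochrome P450 panel assay.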
The target in assay [7] is T2, Protein RecA (Mycobacterium tuberculosis, UniProt P9WHJ3).
T2 sequence (P9WHJ3 whole entry): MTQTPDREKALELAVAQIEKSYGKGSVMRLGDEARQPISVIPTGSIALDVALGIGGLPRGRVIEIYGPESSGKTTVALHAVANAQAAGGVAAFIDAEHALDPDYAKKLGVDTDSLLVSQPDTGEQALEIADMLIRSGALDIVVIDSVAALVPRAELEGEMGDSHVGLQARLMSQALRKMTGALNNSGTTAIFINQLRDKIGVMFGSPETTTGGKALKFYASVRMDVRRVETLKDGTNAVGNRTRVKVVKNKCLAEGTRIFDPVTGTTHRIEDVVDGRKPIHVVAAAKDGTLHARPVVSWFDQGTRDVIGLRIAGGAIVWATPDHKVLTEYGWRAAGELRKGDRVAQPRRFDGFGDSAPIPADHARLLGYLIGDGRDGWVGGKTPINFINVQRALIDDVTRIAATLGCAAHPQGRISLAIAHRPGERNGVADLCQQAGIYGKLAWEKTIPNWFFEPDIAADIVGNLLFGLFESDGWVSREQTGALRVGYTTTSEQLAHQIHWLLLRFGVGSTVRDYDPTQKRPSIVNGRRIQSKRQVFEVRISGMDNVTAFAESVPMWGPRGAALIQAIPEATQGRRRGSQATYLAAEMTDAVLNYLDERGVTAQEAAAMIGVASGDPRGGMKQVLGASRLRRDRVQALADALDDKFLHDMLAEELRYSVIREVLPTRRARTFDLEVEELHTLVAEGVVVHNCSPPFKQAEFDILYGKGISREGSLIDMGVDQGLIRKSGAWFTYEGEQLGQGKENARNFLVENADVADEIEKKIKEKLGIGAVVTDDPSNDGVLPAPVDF
Description: Fluorescence Cell-Free Homogeneous Dose Retest to Identify Inhibitors of RecA-Intein Splicing Activity. [Related pubchem assays (depositor defined):AID2097, AID2223, AID489010, AID492950]. Format: functional.

The target in assay [8] is T3, Replicative DNA helicase DnaB (Mycobacterium tuberculosis, UniProt P9WMR3).
T3 sequence (P9WMR3 whole entry): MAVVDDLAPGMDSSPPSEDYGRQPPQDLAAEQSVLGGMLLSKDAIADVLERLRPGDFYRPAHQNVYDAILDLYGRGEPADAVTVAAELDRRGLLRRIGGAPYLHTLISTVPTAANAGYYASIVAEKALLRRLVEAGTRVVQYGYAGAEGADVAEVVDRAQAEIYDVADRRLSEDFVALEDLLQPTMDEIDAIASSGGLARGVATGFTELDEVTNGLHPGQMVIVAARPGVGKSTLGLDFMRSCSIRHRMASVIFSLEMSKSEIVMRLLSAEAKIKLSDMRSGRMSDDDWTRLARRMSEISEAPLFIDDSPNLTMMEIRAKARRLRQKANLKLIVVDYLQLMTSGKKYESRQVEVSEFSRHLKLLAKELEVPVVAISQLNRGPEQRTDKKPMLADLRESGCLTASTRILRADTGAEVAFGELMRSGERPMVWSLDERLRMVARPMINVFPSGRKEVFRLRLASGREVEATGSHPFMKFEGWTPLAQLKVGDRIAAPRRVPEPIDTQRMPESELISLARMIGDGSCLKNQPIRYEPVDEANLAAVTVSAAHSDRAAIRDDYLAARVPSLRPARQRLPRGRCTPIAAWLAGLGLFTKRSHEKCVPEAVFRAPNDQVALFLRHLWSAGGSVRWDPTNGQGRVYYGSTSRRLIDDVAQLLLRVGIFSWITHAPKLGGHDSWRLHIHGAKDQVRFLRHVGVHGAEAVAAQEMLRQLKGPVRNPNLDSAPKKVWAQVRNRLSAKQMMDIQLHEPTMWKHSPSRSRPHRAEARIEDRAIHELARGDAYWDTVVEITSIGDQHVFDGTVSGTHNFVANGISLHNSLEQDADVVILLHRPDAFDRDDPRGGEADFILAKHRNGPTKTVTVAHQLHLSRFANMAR
Description: DnaB intein splicing inhibitors, dose response, biochemical, cell-free fluorescence (AID 449749). The assay is classed as functional.

Assay [9] has as its target T4, Cytochrome P450 1A2 (Homo sapiens, UniProt P05177).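 Note: PubChem cytochrome P450 panel assay, CYP1A2 panel member.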
T4 sequence (P05177 whole entry): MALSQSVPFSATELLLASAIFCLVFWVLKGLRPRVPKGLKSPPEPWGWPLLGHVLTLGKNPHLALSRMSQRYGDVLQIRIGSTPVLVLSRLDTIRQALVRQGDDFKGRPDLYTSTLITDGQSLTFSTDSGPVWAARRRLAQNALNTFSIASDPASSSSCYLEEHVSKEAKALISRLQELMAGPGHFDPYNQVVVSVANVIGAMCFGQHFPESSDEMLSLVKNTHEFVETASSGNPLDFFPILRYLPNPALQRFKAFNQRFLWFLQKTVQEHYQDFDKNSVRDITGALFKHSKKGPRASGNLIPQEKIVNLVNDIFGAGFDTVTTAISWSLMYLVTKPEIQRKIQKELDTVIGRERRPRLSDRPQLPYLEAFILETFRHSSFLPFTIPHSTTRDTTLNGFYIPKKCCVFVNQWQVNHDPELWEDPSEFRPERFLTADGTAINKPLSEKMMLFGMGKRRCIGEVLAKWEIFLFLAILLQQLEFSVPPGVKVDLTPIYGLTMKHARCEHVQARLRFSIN

Chain of Cytochrome P450 2C19 (P33261 whole entry): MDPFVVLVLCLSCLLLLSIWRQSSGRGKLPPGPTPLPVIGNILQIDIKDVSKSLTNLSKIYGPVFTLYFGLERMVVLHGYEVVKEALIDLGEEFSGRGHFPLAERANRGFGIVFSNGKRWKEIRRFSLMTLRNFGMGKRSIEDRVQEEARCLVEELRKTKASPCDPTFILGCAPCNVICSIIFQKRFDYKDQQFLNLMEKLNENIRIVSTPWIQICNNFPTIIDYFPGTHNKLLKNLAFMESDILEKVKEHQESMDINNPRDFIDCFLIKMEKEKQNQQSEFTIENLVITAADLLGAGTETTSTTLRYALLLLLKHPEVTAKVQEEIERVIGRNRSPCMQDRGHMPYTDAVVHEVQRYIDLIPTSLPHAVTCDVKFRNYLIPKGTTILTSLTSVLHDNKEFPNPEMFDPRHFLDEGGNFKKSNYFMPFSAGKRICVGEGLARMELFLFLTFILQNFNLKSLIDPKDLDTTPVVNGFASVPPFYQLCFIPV
Chain of Cytochrome P450 3A4 (P08684 whole entry): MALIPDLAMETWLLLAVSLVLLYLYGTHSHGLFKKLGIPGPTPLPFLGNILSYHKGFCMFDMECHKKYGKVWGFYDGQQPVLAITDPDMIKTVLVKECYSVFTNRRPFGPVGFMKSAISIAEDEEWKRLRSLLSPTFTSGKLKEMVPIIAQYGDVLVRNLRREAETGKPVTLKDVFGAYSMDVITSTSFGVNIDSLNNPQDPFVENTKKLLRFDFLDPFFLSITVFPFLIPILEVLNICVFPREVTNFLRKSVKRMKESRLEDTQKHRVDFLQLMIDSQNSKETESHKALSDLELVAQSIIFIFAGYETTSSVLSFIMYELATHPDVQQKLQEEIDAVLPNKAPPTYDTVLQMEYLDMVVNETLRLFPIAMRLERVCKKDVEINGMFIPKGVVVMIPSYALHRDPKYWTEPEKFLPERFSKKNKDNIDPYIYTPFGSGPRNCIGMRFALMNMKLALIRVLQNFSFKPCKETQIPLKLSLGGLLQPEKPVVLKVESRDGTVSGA
T1 sequence (P11940 whole entry): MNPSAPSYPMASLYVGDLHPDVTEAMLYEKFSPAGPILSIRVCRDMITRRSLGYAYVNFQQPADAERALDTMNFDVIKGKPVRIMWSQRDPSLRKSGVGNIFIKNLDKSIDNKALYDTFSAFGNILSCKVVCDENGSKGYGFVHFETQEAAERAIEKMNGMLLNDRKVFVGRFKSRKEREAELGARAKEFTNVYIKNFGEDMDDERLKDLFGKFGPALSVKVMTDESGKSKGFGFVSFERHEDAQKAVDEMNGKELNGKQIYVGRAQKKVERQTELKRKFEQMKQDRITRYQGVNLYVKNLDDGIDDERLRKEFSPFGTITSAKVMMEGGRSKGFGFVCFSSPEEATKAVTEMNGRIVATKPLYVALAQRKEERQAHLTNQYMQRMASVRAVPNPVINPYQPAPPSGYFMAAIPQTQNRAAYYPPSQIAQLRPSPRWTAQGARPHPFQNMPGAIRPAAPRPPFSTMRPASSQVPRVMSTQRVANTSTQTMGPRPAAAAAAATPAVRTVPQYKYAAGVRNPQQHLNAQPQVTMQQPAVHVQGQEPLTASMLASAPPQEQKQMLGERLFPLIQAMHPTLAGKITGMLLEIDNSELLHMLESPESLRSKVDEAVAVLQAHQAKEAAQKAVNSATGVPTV
Chain of Cytochrome P450 2C9 (P11712 whole entry): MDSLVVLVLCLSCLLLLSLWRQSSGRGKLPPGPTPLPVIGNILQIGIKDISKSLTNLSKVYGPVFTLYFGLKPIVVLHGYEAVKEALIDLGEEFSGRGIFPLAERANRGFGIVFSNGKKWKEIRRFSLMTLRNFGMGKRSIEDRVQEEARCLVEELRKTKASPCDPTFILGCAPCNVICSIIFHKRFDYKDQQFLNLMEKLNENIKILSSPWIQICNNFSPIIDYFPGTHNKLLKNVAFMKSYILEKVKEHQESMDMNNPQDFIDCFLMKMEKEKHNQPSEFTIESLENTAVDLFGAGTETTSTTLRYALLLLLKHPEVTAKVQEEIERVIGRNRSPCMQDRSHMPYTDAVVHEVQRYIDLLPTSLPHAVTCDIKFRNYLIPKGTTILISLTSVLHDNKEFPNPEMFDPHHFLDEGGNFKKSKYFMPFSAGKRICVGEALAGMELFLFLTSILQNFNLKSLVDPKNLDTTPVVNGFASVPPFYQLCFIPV
Chain of Cytochrome P450 2D6 (P10635 whole entry): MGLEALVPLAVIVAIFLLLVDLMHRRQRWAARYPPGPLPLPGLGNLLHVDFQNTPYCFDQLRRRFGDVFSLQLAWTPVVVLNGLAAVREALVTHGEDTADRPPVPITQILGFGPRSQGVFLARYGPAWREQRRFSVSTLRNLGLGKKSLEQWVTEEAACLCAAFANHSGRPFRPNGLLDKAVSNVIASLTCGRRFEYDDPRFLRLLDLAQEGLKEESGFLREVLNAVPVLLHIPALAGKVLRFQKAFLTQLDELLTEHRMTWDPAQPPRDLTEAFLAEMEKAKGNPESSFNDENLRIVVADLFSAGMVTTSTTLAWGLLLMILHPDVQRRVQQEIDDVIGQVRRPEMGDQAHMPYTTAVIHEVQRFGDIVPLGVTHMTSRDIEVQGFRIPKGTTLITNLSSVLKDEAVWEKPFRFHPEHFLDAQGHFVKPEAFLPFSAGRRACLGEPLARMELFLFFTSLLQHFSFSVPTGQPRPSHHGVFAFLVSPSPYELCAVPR

As for `O=C(CN1C(=O)/C(=C/c2ccccc2Cl)SC1=S)NC1CCS(=O)(=O)C1` (stereo not given), the IC50 in assay [1] and in [2] was > 66 µM (inactive) throughout.

With `O=C(COc1ccc(Br)cc1)NNC(=O)c1ccc(-n2cncn2)c([N+](=O)[O-])c1`, the IC50 in assay [1] and in [2] was > 66 µM (inactive) in each case.

Turning to `COc1ccc(-c2nc3cnc(Oc4ccccc4)nc3n(C3CC3)c2=O)cc1`, the AC50 in assay [3] was 15.8 µM (inconclusive).

Take `Cn1cc(-c2nc3cnc(N4CCOCC4)nc3n(CCC#N)c2=O)c2ccccc21`: the AC50 in assay [3] is 15.8 µM (inconclusive).

As for `COc1ccccc1CNc1nc(-c2c(C)noc2C)nc2ccccc12`, the values for the concentration at half-maximal activity (AC50) in assay [4], in [5] and in assay [6] were 1 µM (inconclusive), 1.58 µM (inconclusive) and 7.94 µM (inconclusive), respectively.

`CC(=O)Nc1ccc(SCC(=O)NC(=O)c2ccc(S(=O)(=O)N(C)C)cc2)cc1`: the IC50 in assay [1] and in assay [2] was > 66 µM (inactive) throughout.

Turning to `O=C(N/C(=C\c1cccs1)C(=O)N1CCCCCC1)c1ccccc1`, the AC50 in assay [4] was 31.6 µM (inconclusive); in assay [5] it was 5.01 µM (inconclusive).

On to `CCCN(CCC)C(=O)Cc1c(-c2ccc(Cl)cc2)nc2c(Cl)cc(Cl)cn12` [ALPDEM], for which the AC50 in assay [3] is 0.794 µM (inconclusive).

Take `CCC1NC(=S)N(C2CCCCC2)C1=O` (stereo not given): the AC50 in assay [4] is 15.8 µM (inconclusive); in assay [5], 5.01 µM (inconclusive).

In the case of `CC1Nc2ncnc(N3CCc4ccccc4C3)c2N(Cc2ccc(Br)cc2)C1=O` (stereo not given), in assay [7], the EC50 is 23.7 µM (active). Besides, in assay [8], the AC50 was > 380 µM (inactive).

Turning to `Cc1n[nH]c(C)c1S(=O)(=O)N1CCOCC1`, the AC50 in assay [4] is 17.8 µM (inconclusive).

With `COC(=O)CCC(NC(=O)OCc1ccccc1)C(=O)NC(CC(C)C)C(=O)OC` (stereo not given) (Cbz-Glu(OMe)-Leu-OMe; configuration not given here), in assay [3], the concentration at half-maximal activity (AC50) was 14.1 µM (inconclusive).

For the molecule `COc1ccccc1C1CC(c2cccs2)=Nc2ccccc2S1` (stereo not given), the IC50 in assay [1] and in [2] was > 66 µM (inactive) in each case.

In the case of `CCc1noc(C)c1C(=O)N1CCN(S(=O)(=O)c2ccccc2C(F)(F)F)CC1`, the IC50 in [1] and in assay [2] was > 66 µM (inactive) throughout.

As to `CCOC(=O)C(CC)Sc1ncnc2c1nnn2-c1ccc(F)cc1` (stereo not given), the EC50 in [7] is 26.7 µM (active). In addition, the AC50 in assay [8] is 0.908 µM (active).

As to `O=C(NC(=S)Nc1cccc2cccnc12)c1ccccc1`, the IC50 in assay [1] and in [2] was > 66 µM (inactive) throughout.

Consider `O=C(CCc1nc(-c2ccccc2)c(-c2ccccc2)o1)OCc1ccc(Cl)cc1`, for which the AC50 in assay [3] was 35.5 µM (inconclusive).

Take `N[C@@H](Cc1cc(-c2ccc(Cl)cc2Cl)cc(CP(=O)(O)O)c1O)C(=O)O`: the AC50 in assay [4] is 20 µM (inconclusive); in assay [5], 7.94 µM (inconclusive); in assay [9], 20 µM (inconclusive).

With `O=C(O)c1nn(-c2ccccc2)ccc1=O`, the AC50 in assay [4] was 0.398 µM (inconclusive).

On to `Cc1ccccc1-c1nc(C[S+]([O-])CC(=O)NCCN2CCN(Cc3ccccc3)CC2)c(C)o1` (stereo not given), for which, in assay [4], the AC50 was 39.8 µM (inconclusive).

With `O=S(=O)(NC(=S)NC1CCCCC1)c1ccccc1`, the IC50 in assay [1] and in assay [2] was > 66 µM (inactive) throughout.

For `Cc1ccc(OCC(=O)Nc2ccccc2-c2ccccc2)cc1`, the half-maximal activity concentration (AC50) in assay [4] was 11.2 µM (inconclusive).

As to `Cc1cc(C)n2nc(SCc3cc(=O)oc4ccc5ccccc5c34)nc2n1`, the IC50 in assay [1] and in assay [2] was > 66 µM (inactive) in each case.

In the case of `Cc1ccc(S(=O)(=O)CCSc2cccc(C(=O)O)c2)cc1`, the IC50 in [1] and in assay [2] was > 66 µM (inactive) in each case.

Regarding `CC[C@]1(c2ncc[nH]2)Cc2ccccc2O1`, the AC50 in assay [4] was 25.1 µM (inconclusive); in assay [6] it was 10 µM (inconclusive).

In the case of `Cc1nc2ccccc2c2c1C(=O)NC2=O`, in assay [7], the EC50 is 3.72 µM (active). In addition, the AC50 in assay [8] was 76.5 µM (active).

With `CCOc1ccc(CCNC(=O)C2CC(=O)N(C3CCCC3)C2)cc1OCC` (stereo not given), the AC50 in assay [5] is 0.0631 µM (inconclusive); in [6], 0.0282 µM (inconclusive).

On to `COc1cccc(-c2cncnc2NCc2ccccc2)c1`, for which the values for the AC50 in [4] and in assay [6] were 0.158 µM (inconclusive) and 39.8 µM (inconclusive), respectively.

Turning to `Cc1ccc(NC(=O)C(CC(C)C)NC(N)=O)cc1` (stereo not given), the EC50 in assay [7] was > 380 µM (inactive). Moreover, the AC50 in assay [8] is > 380 µM (inactive).

In the case of `C/C(=N/NC(=O)Cc1cc(O)[nH]n1)c1ccc([N+](=O)[O-])cc1`, in [7], the EC50 is 1.38 µM (active). The AC50 in assay [8] is 2.51 µM (active).

As to `O=C1C(Cl)=C(N2CCOCC2)C(=O)N1c1ccccc1F`, in assay [7], the EC50 was 2.47 µM (active). Besides, in assay [8], the half-maximal activity concentration (AC50) is 10.8 µM (active).

On to `N=C(N)S[C@H]1c2ccccc2-c2cc([N+](=O)[O-])ccc21`, for which the AC50 is 0.631 µM (inconclusive) in assay [5] and 2.51 µM (inconclusive) in [6].

Take `Cc1ccc(Cn2nnc3c(O)nc(C4CCN(C(=O)Cc5cccs5)CC4)nc32)cc1`: the AC50 in [9] is 31.6 µM (inconclusive); in assay [6], 17.8 µM (inconclusive).

Consider `C=O.C[C@@H]1Cc2ccccc2N1NC(=O)c1ccc(Cl)c([S+](N)[O-])c1` (stereo not given in full), for which the AC50 in assay [3] was 5.01 µM (inconclusive).

On to `COc1cc(Cc2nccc3cc(OC)c(OC)cc23)c(S(=O)(=O)O)cc1OC`, for which the EC50 in assay [7] was 85.7 µM (active). Besides, the AC50 in [8] was 161 µM (active).

For the molecule `CCCCn1[nH]c(-c2ccccc2)cc1=O`, the EC50 in assay [7] was 1.05 µM (active). Further, the AC50 in assay [8] is 2.96 µM (active).

Take `O=c1cnc2cnc(Oc3cccc(Cl)c3)nc2n1Cc1ccc(F)cc1`: the half-maximal activity concentration (AC50) in [3] was 25.1 µM (inconclusive).
